Measured values as given in ChEMBL document CHEMBL1944552, “Pharmacophore-based discovery of a novel cytosolic phospholipase A(2)α inhibitor” (Bioorg Med Chem Lett, 2012).

Assays:
[1] = Aqueous solubility of the compound at >10 uM; assay type: physicochemical; conditions: buffer
[2] = Inhibition of human recombinant His-tagged cPLA2alpha expressed in baculovirus-infected Sf9 cells assessed as residual activity at 10 uM after 1 hr by RP-HPLC analysis
[3] = Inhibition of cPLA2alpha-mediated [3H]-arachidonic acid release in Ca2+ ionophore A23187-stimulated human monocytes preincubated for 15 mins prior Ca2+ ionophore A23187 stimulation measured after 5 mins by scintillation counting
[4] = Inhibition of human recombinant His-tagged cPLA2alpha expressed in baculovirus-infected Sf9 cells after 1 hr by RP-HPLC analysis
[5] = Inhibition of cPLA2alpha

SMILES: Cc1cc(-c2ccc(/N=N/c3c(S(=O)(=O)O)cc4cc(S(=O)(=O)O)cc(N)c4c3O)c(C)c2)ccc1/N=N/c1ccc2c(S(=O)(=O)O)ccc(N)c2c1O
- solubility [1]: Insoluble
- Activity [2]: 87.5%

SMILES: Cc1cc(N)ccc1/N=N/c1ccc(/N=N/c2ccc(/N=N/c3ccc4cc(S(=O)(=O)O)cc(S(=O)(=O)O)c4c3)c(C)c2)c(C)c1
- solubility [1]: Insoluble
- Activity [2]: 81.9%

SMILES: COc1cc(/N=N/c2ccc3cc(S(=O)(=O)O)cc(S(=O)(=O)O)c3c2)ccc1/N=N/c1ccc(NC(=O)c2ccc(NC(=O)c3ccccc3)cc2)cc1C
- solubility [1]: Insoluble
- Activity [2]: 62.7%

SMILES: CCCCCCCCCCCCCCCCOc1ccc(S(=O)(=O)N/N=c2/sc3ccc(S(=O)(=O)O)cc3n2C)cc1C(=O)O
- solubility [1]: Insoluble
- Activity [2]: 70.2%

SMILES: CCCCCCCCCCCCCCCc1cc(=O)n(-c2ccc(NC(=O)/C=C/C(=O)O)cc2)n1C
- solubility [1]: Insoluble
- Activity [2]: 92.6%

SMILES: CCCCCCCCCCCCCCCCOc1ccc(C(=O)O)cc1NC(=O)/C(=N/O)C(C)=O
- IC50 [3]: 5 µM
- IC50 [4]: 4 µM

SMILES: O=C(COc1ccc(SCCCCCc2ccccc2)cc1)COc1ccc(C(=O)O)cc1
- IC50 [5]: 0.004 µM

SMILES: CCCCCCCCCCCCCCCC1=NN(c2ccc(S(=O)(=O)O)cc2)C(=O)C1/N=N/c1ccccc1 (centres undefined)
- solubility [1]: Insoluble
- Activity [2]: 77.1%

SMILES: CCCCCCCCCCCCCCCc1nnc(SCC(=O)O)[nH]1
- solubility [1]: Insoluble
- Activity [2]: 85.1%

SMILES: CCCCCCCCCCCCCCCCCC1=NCCN1CCN(CS(=O)(=O)O)CS(=O)(=O)O
- solubility [1]: Insoluble
- Activity [2]: 106%

SMILES: O=C(COc1ccc(SCCCCSc2nccs2)cc1)COc1ccc(C(=O)O)cc1
- IC50 [5]: 0.76 µM

SMILES: Cn1ccnc1SCCCCOc1ccc(OCC(=O)COc2ccc(C(=O)O)cc2)cc1
- IC50 [5]: 63 µM

SMILES: CCCCCCCCCCCCCCCCN(C)c1ccc(S(=O)(=O)O)cc1[N+](=O)[O-]
- solubility [1]: Insoluble
- Activity [2]: 61.4%

SMILES: CCCCCCCCCCCCCCCCCC1=NCCN1CS(=O)(=O)O
- solubility [1]: Insoluble
- Activity [2]: 94.7%

SMILES: O=C(COc1ccc(C(=O)O)cc1)COc1ccc(C(=O)NCCCCc2ccccc2)cc1
- IC50 [5]: 20 µM

SMILES: CN(CCc1ccccc1)C(=O)CSc1ccc(OCC(=O)COc2ccc(C(=O)O)cc2)cc1
- IC50 [5]: 34 µM

SMILES: CCCCCCCCCCCCCCCCOc1ccc(C(=O)O)cc1
- solubility [1]: Insoluble
- Activity [2]: 88.4%
